Results published in patent US20110263425A1, “HERBICIDAL COMPOSITION AND METHOD OF USE THEREOF” (SYNGENTA CROP PROTECTION, INC., priority 2007, published 2011).

Legend:
Set-up in all cases: key to Synergy (actual significantly higher than expected): *indicates synergy
Details in all cases: for Weed control, Actual: tank mixture
[1] = system: large crabgrass (Digitaria sanguinalis); assay: Glasshouse trial, control of large crabgrass, mesotrione and atrazine applied post-emergence; assay type: in vivo
Protocol: (§1) A glasshouse trial was carried out. Large crabgrass seeds were sown into standard glasshouse potting mix (1:1 v/v Promix:Vero sand soil) contained in 10 cm square plastic pots. Treatments were replicated three times. Mesotrione (in the form Callisto® 480SE) was applied post-emergence to large crabgrass (Digitaria sanguinalis) at either 12 g ai/ha or 24 g ai/ha with or without atrazine (in the form […]®. When used, atrazine was applied at a rate of 140 g ai/ha or 280 g ai/ha. The adjuvant system was X-77 at 0.1% v/v in deionised water. 200 litres of herbicide/adjuvant system was used per hectare. General weed control was evaluated at 7 and 14 days after treatment (DAT). It is noted that all herbicides were applied at reduced field rates because herbicide effects are magnified in a glasshouse environment. Rates were chosen to give a 50 to 70% level of control with herbicides applied alone as this allows for detection of any synergistic effect when tank mixtures are used. The results were evaluated using the Colby formula. The expected result for (A+B) is (A+B)-(A×B/100) where A and B are the 'observed' results for A and B on their own.

large crabgrass = assay: Glasshouse trial, control of large crabgrass, mesotrione and atrazine applied pre-emergence; assay type: in vivo, Digitaria sanguinalis
Protocol: as §1, with “own. […] A glasshouse trial was carried out as described in Example 1, but the herbicidal composition was applied pre-emergence, and higher rates of atrazine were used.” for “own.”

[2] = system: white clover (Trifolium repens); assay: Glasshouse trial, control of white clover, mesotrione and atrazine applied post-emergence; assay type: in vivo
Protocol: [The source words this procedure for another organism and says it was used here with some conditions changed.] as §1, with “own. […] A glasshouse trial was carried out as described in Example 1, but the herbicidal composition was applied to white clover (Trifolium repens) instead of large crabgrass, and higher rates of mesotrione were used.” for “own.”

[3] = atrazine 140 g ai/ha plus mesotrione at 12 g ai/ha
[4] = atrazine 140 g ai/ha plus mesotrione at 24 g ai/ha
[5] = atrazine 280 g ai/ha plus mesotrione at 12 g ai/ha
[6] = atrazine 280 g ai/ha plus mesotrione at 24 g ai/ha
[7] = atrazine 560 g ai/ha plus mesotrione at 12 g ai/ha
[8] = atrazine 560 g ai/ha plus mesotrione at 24 g ai/ha
[9] = atrazine 140 g ai/ha plus mesotrione at 50 g ai/ha
[10] = atrazine 140 g ai/ha plus mesotrione at 100 g ai/ha
[11] = atrazine 280 g ai/ha plus mesotrione at 50 g ai/ha
[12] = atrazine 280 g ai/ha plus mesotrione at 100 g ai/ha

Question: Which results are given for `CCNc1nc(Cl)nc(NC(C)C)n1` [Atrazine, 6-chloro-N-ethyl-N-isopropyl-1,3,5-triazine-2,4-diamine]?
Answer: Synergy (actual significantly higher than expected) [1, 3]: *; Weed control, Expected (Colby formula) [1, 3]: 37%; Weed control, Actual [1, 3]: 48%; Synergy (actual significantly higher than expected) [1, 4]: *; Weed control, Expected (Colby formula) [1, 4]: 68%; Weed control, Actual [1, 4]: 78%; Synergy (actual significantly higher than expected) [1, 5]: *; Weed control, Expected (Colby formula) [1, 5]: 37%; Weed control, Actual [1, 5]: 62%; Synergy (actual significantly higher than expected) [1, 6]: *; Weed control, Expected (Colby formula) [1, 6]: 68%; Weed control, Actual [1, 6]: 77%; Synergy (actual significantly higher than expected) (large crabgrass; [5]): *; Weed control, Expected (Colby formula) (large crabgrass; [5]): 68%; Weed control, Actual (large crabgrass; [5]): 75%; Weed control, Expected (Colby formula) (large crabgrass; [6]): 97%; Weed control, Actual (large crabgrass; [6]): 87%; Synergy (actual significantly higher than expected) (large crabgrass; [7]): *; Weed control, Expected (Colby formula) (large crabgrass; [7]): 60%; Weed control, Actual (large crabgrass; [7]): 90%; Weed control, Expected (Colby formula) (large crabgrass; [8]): 96%; Weed control, Actual (large crabgrass; [8]): 98%; Weed control, Expected (Colby formula) [2, 9]: 58%; Weed control, Actual [2, 9]: 57%; Synergy (actual significantly higher than expected) [2, 10]: *; Weed control, Expected (Colby formula) [2, 10]: 68%; Weed control, Actual [2, 10]: 80%; Weed control, Expected (Colby formula) [2, 11]: 74%; Weed control, Actual [2, 11]: 73%; Synergy (actual significantly higher than expected) [2, 12]: *; Weed control, Expected (Colby formula) [2, 12]: 80%; Weed control, Actual [2, 12]: 88%
